Tests used:
Experiment in all cases: relative viability (nuclei count vs DMSO), 5 days (fraction); higher = more cells survive
[1] = compound: OCc1c[nH]c2ccccc12 [Indole-3-carbinol] + Nc1ncn([C@H]2C[C@H](O)[C@@H](CO)O2)c(=O)n1 [Decitabine] (partner 2 µM)
Procedure, shortened: (§1)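 Lung cancer cell lines in 1536-well plates got either a single drug or a fixed anchor-drug dose together with five library-drug doses (not always all listed) in √10 steps, by pin tool, on the day after seeding. Nuclei were counted after 5 days, and relative viability is the treated-to-vehicle ratio of nuclei counts. Values are medians of duplicate plates.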

[2] = compound: OCc1c[nH]c2ccccc12 [Indole-3-carbinol] + Cc1nc(Nc2ncc(C(=O)Nc3c(C)cccc3Cl)s2)cc(N2CCN(CCO)CC2)n1 [Dasatinib] (partner 0.075 µM)
Procedure, shortened: as §1

[3] = compound: OCc1c[nH]c2ccccc12 [Indole-3-carbinol] + O=C(c1cc(Cc2n[nH]c(=O)c3ccccc23)ccc1F)N1CCN(C(=O)C2CC2)CC1 [Olaparib] (partner 8 µM)
Procedure, shortened: as §1

[4] = compound: OCc1c[nH]c2ccccc12 [Indole-3-carbinol] + CC1(C)CCC(c2ccc(Cl)cc2)=C(CN2CCN(c3ccc(C(=O)NS(=O)(=O)c4ccc(N[C@H](CCN5CCOCC5)CSc5ccccc5)c(S(=O)(=O)C(F)(F)F)c4)cc3)CC2)C1 [Navitoclax] (partner 0.5 µM)
Procedure, shortened: as §1

[5] = compound: OCc1c[nH]c2ccccc12 [Indole-3-carbinol] + COc1cc2c(Oc3ccc(NC(=O)C4(C(=O)Nc5ccc(F)cc5)CC4)cc3F)ccnc2cc1OCCCN1CCOCC1 [Foretinib] (partner 0.25 µM)
Procedure, shortened: as §1

| Cell Line | relative viability ([1]; first compound 0.253 µM) | relative viability ([1]; first compound 0.8 µM) | relative viability ([1]; first compound 2.53 µM) | relative viability ([1]; first compound 8 µM) | relative viability ([2]; first compound 0.253 µM) | relative viability ([2]; first compound 0.8 µM) | relative viability ([2]; first compound 2.53 µM) | relative viability ([2]; first compound 8 µM) | relative viability ([3]; first compound 0.253 µM) | relative viability ([3]; first compound 0.8 µM) | relative viability ([3]; first compound 2.53 µM) | relative viability ([3]; first compound 8 µM) | relative viability ([4]; first compound 0.253 µM) | relative viability ([4]; first compound 0.8 µM) | relative viability ([4]; first compound 2.53 µM) | relative viability ([4]; first compound 8 µM) | relative viability ([5]; first compound 0.253 µM) | relative viability ([5]; first compound 0.8 µM) | relative viability ([5]; first compound 2.53 µM) | relative viability ([5]; first compound 8 µM) |
| --- | --- | --- | --- | --- | --- | --- | --- | --- | --- | --- | --- | --- | --- | --- | --- | --- | --- | --- | --- | --- |
| NCI-H2009 | 0.406 | 0.346 | 0.376 | 0.381 | 0.316 | 0.305 | 0.33 | 0.3 | 0.674 | 0.768 | 0.7 | 0.649 | 1.16 | 1.2 | 1.18 | 1.02 | 1.18 | 1.13 | 1.21 | 1.17 |
| HCC-78 | 0.681 | 0.715 | 0.676 | 0.741 | 0.335 | 0.436 | 0.392 | 0.535 | 0.958 | 0.758 | 0.798 | 0.819 | 0.925 | 0.553 | 0.776 | 0.719 | 0.558 | 0.526 | 0.592 | 0.523 |
| NCI-H2170 | 0.505 | 0.494 | 0.446 | 0.473 | 0.588 | 0.644 | 0.703 | 0.594 | 0.633 | 0.617 | 0.597 | 0.586 | 0.577 | 0.766 | 0.682 | 0.607 | 1.04 | 0.861 | 0.815 | 0.943 |
| NCI-H1793 | 0.502 | 0.465 | 0.472 | 0.479 | 0.433 | 0.422 | 0.435 | 0.394 | 0.947 | 0.917 | 0.505 | 0.764 | 0.423 | 0.402 | 0.508 | 0.393 | 0.728 | 0.78 | 0.685 | 0.656 |
| HCC-366 | 0.384 | 0.335 | 0.369 | 0.335 | 0.626 | 0.721 | 0.724 | 0.601 | 0.459 | 0.386 | 0.35 | 0.309 | 1.03 | 1.02 | 0.986 | 0.948 | 0.959 | 0.861 | 0.902 | 0.926 |
| ABC-1 | 0.993 | 1.14 | 1.12 | 1.24 | 0.47 | 0.596 | 0.456 | 0.591 | 0.855 | 0.97 | 0.87 | 0.761 |  |  |  |  | 0.903 | 0.961 | 1.13 | 1 |
| NCI-H1703 |  |  |  |  |  |  |  |  | 0.389 | 0.557 | 0.389 | 0.553 | 1.01 | 1.48 | 1.47 | 1.18 | 0.342 | 0.376 | 0.309 | 0.326 |
| NCI-H661 | 0.551 | 0.547 | 0.563 | 0.547 | 0.961 | 0.827 | 0.819 | 0.917 | 0.775 | 0.771 | 0.866 | 0.742 |  |  |  |  | 1.02 | 1.04 | 1.03 | 1.01 |
| LCLC-103H | 0.789 | 0.675 | 0.668 | 0.623 | 0.416 | 0.489 | 0.428 | 0.441 | 0.732 | 0.734 | 0.763 | 0.633 |  |  |  |  | 0.691 | 0.783 | 0.669 | 0.639 |
| NCI-H2342 | 0.822 | 0.743 | 0.765 | 0.765 | 0.355 | 0.323 | 0.317 | 0.285 | 0.452 | 0.447 | 0.508 | 0.512 |  |  |  |  | 1.12 | 1.04 | 1.06 | 0.999 |
| SW 900 | 0.418 | 0.376 | 0.483 | 0.405 | 0.837 | 0.79 | 0.438 | 0.586 | 0.983 | 1.37 | 0.883 | 0.899 |  |  |  |  | 0.796 | 1.05 | 0.877 | 0.819 |
| NCI-H522 | 0.698 | 0.699 | 0.803 | 0.689 | 0.806 | 0.961 | 0.818 | 0.796 | 0.657 | 0.564 | 0.663 | 0.608 |  |  |  |  |  |  |  |  |
| CAL-12T |  |  |  |  | 0.385 | 0.53 | 0.536 | 0.366 | 0.672 | 0.834 | 0.717 | 0.66 | 1.21 | 1.48 | 1.16 | 0.993 | 1.13 | 1.17 | 1.01 | 1.09 |
| NCI-H650 | 0.354 | 0.323 | 0.344 | 0.338 | 0.472 | 0.488 | 0.444 | 0.447 | 0.395 | 0.403 | 0.418 | 0.359 |  |  |  |  | 1.05 | 1.02 | 1.04 | 0.953 |
| NCI-H2228 |  |  |  |  | 0.501 | 0.637 | 0.595 | 0.562 | 0.659 | 0.707 | 0.532 | 1.01 | 0.845 | 1.06 | 0.91 | 0.674 | 0.945 | 0.897 | 0.984 | 0.935 |
| NCI-H1792 | 0.569 | 0.603 | 0.506 | 0.489 | 0.823 | 1.05 | 0.845 | 0.737 | 0.612 | 0.532 | 0.553 | 0.3 | 0.655 | 0.619 | 0.737 | 0.644 |  |  |  |  |
| HCC-44 | 0.983 | 0.986 | 0.971 | 0.91 |  |  |  |  | 1 | 1.02 | 0.966 | 0.962 | 1.05 | 0.986 | 0.941 | 0.859 |  |  |  |  |
| IA-LM |  |  |  |  |  |  |  |  | 0.89 | 0.815 | 0.868 | 0.752 | 0.811 | 0.896 | 0.858 | 0.732 | 1.07 | 1.37 | 1.11 | 1.09 |
| NCI-H358 | 0.204 | 0.207 | 0.304 | 0.207 | 0.146 | 0.204 | 0.172 | 0.189 | 0.619 | 0.659 | 0.717 | 0.569 |  |  |  |  | 0.805 | 0.69 | 0.73 | 0.73 |
| NCI-H1563 |  |  |  |  | 0.471 | 0.428 | 0.429 | 0.479 |  |  |  |  |  |  |  |  | 0.865 | 0.799 | 0.914 | 0.859 |

Reference: the supplement of paper PMC10307832
